Experimental findings from patent US20020058266A1, “EF-Tu protein encoded on the plastid DNA of the malaria parasite and protein synthesis inhibitors effective as anti-malarial compounds” (priority 1997, published 2002) are described below.

The test system of assay [1] is GTPase domain of Pf 23S rRNApl. Briefly: Thiostrepton filter binding assay, transcripts of the GTPase domain of Pf 23S rRNApl (wild type and mutated). The arrangement: species or system Plasmodium falciparum. Here is the method: (§1) A) Short 23S transcripts of P.falciparum (Pf) wild type rRNApl (open circle A1067) and mutated forms (open square A1067U and filled triangle A1067G), as well as Pf 28S rRNA transcripts (filled square), are compared with an optimized E.coli control transcript (filled circle). For convenience, nucleotide numbers correspond to E.coli.
(§2) Drug binding—Thiostrepton binding to short rRNA transcripts generated in vitro was assayed according to Ryan et al 1991, as modified by Clough et al 1997. […] Before […], samples were incubated on ice for 15 mins in 50 mM imidazole acetate (pH 7.6), 10 mM NH4Cl, 10 mM MgCl2, 1 mM […] and 100 μM GDP, in a final volume of 20 μl.
Having established thiostrepton's activity, we asked “does the antibiotic bind preferentially to the nuclear, mitochondrial or plastid forms of Pf 28/23 S rRNA?”. Evidence that the highest affinity interaction of thiostrepton is with 23S rRNApl was obtained from an in vitro binding assay (Ryan et al 1991). Short transcripts of wild type (wt) RNA corresponding to the GTPase domain of Pf 23S rRNApl (nts 987-1078) were transcribed in vitro from a PCR product that included a T7 promoter sequence in one of the primers. Mutated malarial rRNA sequences (E.coli numbers A1067U and A1067G) were obtained by PCR methodology and transcribed in the same way. Both wild type and modified transcript sequences were verified prior to thiostrepton binding assays. A positive control transcript was used based on the 23S rRNA sequence of E.coli with a mutation (U1061A) that increases stability and binding. […] An intermediate level of binding (˜35% of wt) was obtained with the mutation Pfpl (E.coli number A1067G). Thiostrepton binding to a transcript corresponding to the GTPase domain (nt 1334-1427) of the cytosolic Pf 28S rRNA was ˜10% of that for Pf 23S rRNApl.

The test system of assay [2] is erythrocytic stages of P.falciparum. Briefly: Incorporation of radiotracers (3H-hypoxanthine, 14C-isoleucine) by P.falciparum growing in blood cultures. Type of assay: cell-based, Plasmodium falciparum. As for the experimental part:
Antibiotics—Samples of Mocimycin (kirromycin), Aurodox (N-methylated kirromycin), and Efrotomycin (a glycoside of kirromycin) were used. Aurodox was dissolved in RPMI-Albumax medium (Grande et al 1977), kirromycin was dissolved in RPMI made alkaline by addition of 1M NaOH, and efrotomycin was dissolved in ethanol before dilution in culture medium. Enacyloxin IIA was dissolved in 1% NaHCO3 prior to dilution in RPMI-Albumax medium. The antibiotic GE2270A was dissolved in 100% DMSO before dilution in culture medium. Fusidic acid (Sigma) was dissolved directly in culture medium, and thiostrepton (Sigma) in 100% DMSO before dilution in culture medium. A hemisuccinate form of thiostrepton was prepared as a potassium salt, according to Bodanszky et al 1965. Incorporation of radiotracers by P.falciparum growing in blood cultures in the presence and absence of drugs was carried out as described (Strath et al 1993).
Kirromycin: Kirromycin-resistant forms of bacterial EF-Tu are modified at one of seven amino acids along the opposing interfaces of domains I and III (Mesters et al 1994 and Abdulkarim et al 1994) and Pf EF-Tupl has a substitution at one of these sites (A375S-E.coli numbers) that could potentially confer resistance to kirromycin. To test this possibility, kirromycin (Mocimycin), its methylated derivative Aurodox or its disaccharide derivative Efrotomycin were incubated with erythrocytic stages of P.falciparum grown in cultures over a 36 hr period. The incorporation of both ^3H-hypoxanthine and ^14C-isoleucine was inhibited in a dose-dependent fashion, maximum inhibition being achieved at 100 μM kirromycin (FIG. 5). […] Once maximal depression of incorporation had been reached at any particular dose of drug, residual incorporation continued at a uniform rate thereafter. Vital staining with rhodamine 123, a fluorescent dye that concentrates within the mitochondrion (Divo et al. 1985) confirmed the parasiticidal effect, loss of specific mt staining being evident within 2-3 hours (data not shown). […] Blood cultures of P.falciparum were about 10 times more sensitive to the antibiotic than a gram-positive bacterium (Corynebacterium spp) used in parallel bioassays.

Assay [3] deals with GTPase domain of the 23S rRNApl of Toxoplasma gondii. Briefly: Thiostrepton filter binding assay, T. gondii 23S rRNApl transcripts. As for the experimental part: B) T. gondii wild type rRNApl transcript (filled triangle) and mutated transcript (open triangle) compared with control transcripts from P.falciparum rRNApl (open circle) and E.coli (filled circle).
as §2
In the same way, we tested a transcript corresponding to the GTPase domain of the 23S rRNApl of Toxoplasma gondii (Tg), a related apicomplexan that is an important opportunistic pathogen in patients with AIDS. […] This was found also to be the case with a transcript derived from a PCR product covering the GTPase domain of Tgpl 23S rRNA (nt 926-1024) (FIG. 8B). Corrective mutation of the Tgpl transcript (E. coli number […]) conferred a significant increase (×5) in thiostrepton binding (FIG. 8B).

In assay [4] the test system is GTPase domain of the cytosolic Pf 28S rRNA. Briefly: Thiostrepton filter binding assay, cytosolic Pf 28S rRNA transcript. The settings on record: GTPase domain nt 1334-1427. The arrangement: species or system Plasmodium falciparum. As for the experimental part:
as §1, §2
Having established thiostrepton's activity, we asked “does the antibiotic bind preferentially to the nuclear, mitochondrial or plastid forms of Pf 28/23 S rRNA?”. Evidence that the highest affinity interaction of thiostrepton is with 23S rRNApl was obtained from an in vitro binding assay (Ryan et al 1991). Short transcripts of wild type (wt) RNA corresponding to the GTPase domain of Pf 23S rRNApl (nts 987-1078) were transcribed in vitro from a PCR product that included a T7 promoter sequence in one of the primers. Mutated malarial rRNA sequences (E.coli numbers A1067U and A1067G) were obtained by PCR methodology and transcribed in the same way. […]

In assay [5] the test system is GTPase domain of the E. coli 23S rRNA. Briefly: Thiostrepton binding assay, E. coli 23S rRNA transcript. The settings on record: contains the A at position 1067. Here is the method:
The binding was specific. It depended to a large extent on the presence of an A residue at the position corresponding to E. coli position 1067. […] A transcript corresponding to the GTPase domain of the cytosolic malaria 28S rRNA also bound thiostrepton poorly.
as §2
Having established thiostrepton's activity, we asked “does the antibiotic bind preferentially to the nuclear, mitochondrial or plastid forms of Pf 28/23 S rRNA?”. Evidence that the highest affinity interaction of thiostrepton is with 23S rRNApl was obtained from an in vitro binding assay (Ryan et al 1991). Short transcripts of wild type (wt) RNA corresponding to the GTPase domain of Pf 23S rRNApl (nts 987-1078) were transcribed in vitro from a PCR product that included a T7 promoter sequence in one of the primers. Mutated malarial rRNA sequences (E.coli numbers A1067U and A1067G) were obtained by PCR methodology and transcribed in the same way. Both wild type and modified transcript sequences were verified prior to thiostrepton binding assays. […]

`C=C(NC(=O)C(=C)NC(=O)c1csc(C2=N[C@@H]3c4csc(n4)[C@H]4NC(=O)c5csc(n5)[C@H]([C@](C)(O)[C@@H](C)O)NC(=O)[C@H]5CSC(=N5)/C(=C/C)NC(=O)[C@H]([C@@H](C)O)NC(=O)c5csc(n5)[C@]3(CC2)NC(=O)[C@H](C)NC(=O)C(=C)NC(=O)[C@H](C)NC(=O)[C@H]([C@@H](C)CC)N[C@@H]2C=Cc3c([C@H](C)O)cc(nc3[C@H]2O)C(=O)O[C@@H]4C)n1)C(N)=O` [thiostrepton]: the “thiostrepton binding, mutation A1067G” value in assay [1] (Pfpl transcript, E.coli number A1067G) is on record as ~35 % of wt. Besides, the “thiostrepton binding, mutation A1067U” value in assay [1] (Pfpl transcript, E.coli number A1067U) is listed as ~14 % of wt. In addition, the “thiostrepton binding to wild type transcript” value in assay [1] (short transcript of the GTPase domain, malaria plastid) was “bound thiostrepton strongly”. For the same compound, the “onset of inhibition of protein synthesis” value in assay [2] was 5 h. The IC50 in assay [2] (Plasmodium falciparum, 3 h, read-out: 50% inhibition of uptake of 3H-hypoxanthine and 14C-isoleucine) fell in the range of 3 to 5 µM. The “increase in thiostrepton binding by corrective mutation U1077A” value in assay [3] (Tgpl transcript, E. coli number U1077A versus wild type) came out at 5 ×. Further, the “thiostrepton binding to wild type Tgpl transcript” value in assay [3] (wild type has substitution E.coli number A1077U, nt 926-1024) is listed as “inhibits binding”. The “thiostrepton binding to Pf 28S rRNA transcript relative to Pf 23S rRNApl” value in assay [4] is approximately 10%. Also, the “thiostrepton binding to E. coli transcript” value in assay [5] is given as “bind thiostrepton strongly”.
